Experimental data published in patent publication US4430263A, “Hapten-inhibitor immunoassay” (Abbott Laboratories, priority 1980, dated 1984).

Test system: sheep T4 antibody (gamma globulin / IgG fraction from sheep antiserum)
Assay: Binding constant of T4 antibody binding sites (footnote to Table I, antibody modulation of STI-T4)
Conditions: approximately 7.4 × 10^-8 M antibody binding sites; gamma globulin chromatographically isolated from sheep T4 antibody
Protocol: A working solution of 2.0 mg/ml gamma globulin (chromatographically isolated from sheep T4 antibody) is prepared in 0.1 M HEPES (N-2-hydroxyethylpiperazine-N'-2-ethanesulfonic acid) buffer, pH 8.0, containing 0.1% gelatin. A stock solution of the STI-T4 (soybean trypsin inhibitor-thyroxine) conjugate (8×10^-7 M) is also prepared in HEPES-gelatin buffer, pH 8.0. A trypsin stock solution is made at 1×10^-7 M in dilute HCl, pH 3.0, and stored at 4° C. The trypsin working reagent is diluted to a concentration of 8.2×10^-8 M with HCl gelatin, pH 3.0. Equal volumes (50 μl) of the thyroxine STI conjugate and antibody are mixed and incubated at room temperature for 5 minutes. Trypsin is then added to the mixture, incubated for 30 seconds, and a 25 μl portion of the assay mixture diluted into a cuvette with 250 μl of substrate (0.5 mM benzoylphenylalanylvalyl arginine p-nitroaniline in 0.05 M Tris pH 8.1 with 0.01 M CaCl2). The change in absorbance with time (t=5.5 minutes less t=0.5 minutes) is recorded using a Bichromatic Analyzer equipped with a 380/450 mμ filter. The following table gives the results for a suitable conjugate prepared in Example I.
A working solution of 1 mg/ml anti-T4 IgG (from sheep antiserum) is prepared in barbital buffer with gelatin. The approximate concentration of binding sites from […] analysis is 1.2×10^-7 M.

Question: Which “K (antibody binding sites)” value does the source give for `N[C@@H](Cc1cc(I)c(Oc2cc(I)c(O)c(I)c2)c(I)c1)C(=O)O` [thyroxine] here?
Answer: ~1.3 × 10^9
